Converted amounts (≈) assume the structure as drawn.
How the values were obtained:
Enterococcus faecium [1] = assay: Minimum inhibitory concentration against vancomycin-sensitive Enterococcus faecium in the presence of 30% bovine serum(n=1); type: functional
Enterococcus faecalis [2] = assay: Minimum inhibitory concentration against vancomycin-A Enterococcus faecalis in the presence of 30% bovine serum (n=4); type: functional
Enterococcus faecalis [3] = assay: Minimum inhibitory concentration against vancomycin-sensitive Enterococcus faecalis in the presence of 30% bovine serum (n=3); type: functional
[4] = tested on: Staphylococcus epidermidis; assay: Minimum inhibitory concentration against methicillin-sensitive Staphylococcus epidermidis in the presence of 30% bovine serum; type: functional
Staphylococcus aureus [5] = assay: Minimum inhibitory concentration against methicillin-resistant Staphylococcus aureus
Enterococcus faecium [6] = assay: Minimum inhibitory concentration against vancomycin-A Enterococcus faecium in the presence of 30% bovine serum (n=1) (range = 4-8mg/L); type: functional
[7] = tested on: Staphylococcus haemolyticus; assay: Minimum inhibitory concentration against Staphylococcus haemolyticus in the presence of 30% bovine serum; type: functional
[8] = tested on: Staphylococcus epidermidis; assay: Minimum inhibitory concentration against methicillin-resistant Staphylococcus epidermidis in the presence of 30% bovine serum; type: functional
Enterococcus faecium [9] = assay: Minimum inhibitory concentration against vancomycin-A Enterococcus faecium in the presence of 30% bovine serum (n=1) (range = 2>128mg/l); type: functional
Enterococcus faecalis [10] = assay: Minimum inhibitory concentration against vancomycin-sensitive Enterococcus faecalis in the presence of 30% bovine serum(n=3) (range = 0.25-1mg/l); type: functional
Staphylococcus aureus [11] = assay: Minimum inhibitory concentration against methicillin-sensitive Staphylococcus aureus without serum
Enterococcus faecalis [12] = assay: Minimum inhibitory concentration against vancomycin-A Enterococcus faecalis in the presence of 30% bovine serum (n=4) (range = 8-64mg/L); type: functional
Enterococcus faecium [13] = assay: Minimum inhibitory concentration against vancomycin-A Enterococcus faecium in the presence of 30% bovine serum (n=1) (range = 32>128mg/L); type: functional
Staphylococcus aureus [14] = assay: Minimum inhibitory concentration against methicillin-sensitive Staphylococcus aureus
Enterococcus faecalis [15] = assay: Minimum inhibitory concentration against vancomycin-sensitive Enterococcus faecalis in the presence of 30% bovine serum(n=3)(range = 0.125-0.25mg/l); type: functional
Enterococcus faecalis [16] = assay: Minimum inhibitory concentration against vancomycin-A Enterococcus faecalis in the presence of 30% bovine serum(n=4) (range = 0.5-64mg/L); type: functional
Enterococcus faecalis [17] = assay: Minimum inhibitory concentration against vancomycin-sensitive Enterococcus faecalis in the presence of 30% bovine serum (n=3) (range = <0.125-0.25mg/l); type: functional
Enterococcus faecium [18] = assay: Minimum inhibitory concentration against vancomycin-A Enterococcus faecium in the presence of 30% bovine serum (n=1) (range = 0.25-32mg/l); type: functional
Enterococcus faecalis [19] = assay: Minimum inhibitory concentration against vancomycin-sensitive Enterococcus faecalis in the presence of 30% bovine serum (n=3) (range = 0.25-0.5mg/l); type: functional
Enterococcus faecium [20] = assay: Minimum inhibitory concentration against vancomycin-A Enterococcus faecium in the presence of 30% bovine serum (n=1) (range = 4>128mg/L); type: functional
Enterococcus faecalis [21] = assay: Minimum inhibitory concentration against vancomycin-A Enterococcus faecalis in the presence of 30% bovine serum (n=4) (range = 1-16mg/L); type: functional
Enterococcus faecalis [22] = assay: Minimum inhibitory concentration against vancomycin-A Enterococcus faecalis in the presence of 30% bovine serum(n=4) (range = 1-16mg/L); type: functional
Enterococcus faecium [23] = assay: Minimum inhibitory concentration against vancomycin-A Enterococcus faecium in the presence of 30% bovine serum (n=1) (range = 2-32mg/l); type: functional

Row | SMILES | MIC (Enterococcus faecium [1]) [µg/mL] | MIC (Enterococcus faecalis [2]) [µg/mL] | MIC (Enterococcus faecalis [3]) [µg/mL] | MIC [4] [µg/mL] | MIC (Staphylococcus aureus [5]) [µg/mL] | MIC [7] [µg/mL] | MIC [8] [µg/mL] | MIC (Staphylococcus aureus [14]) [µg/mL] | other results
1 | CCCCCCCCCCc1ccc(CNC2[C@H](Oc3c4cc5cc3Oc3ccc(cc3Cl)[C@@H](O)C3NC(=O)[C@H](NC(=O)[C@@H]5NC(=O)[C@H]5NC(=O)[C@@H](Cc6ccc(cc6)O4)NC(=O)[C@H](NC)c4ccc(O)c(c4)Oc4cc(O)c(Cl)c5c4)c4ccc(O)c(c4)-c4c(O[C@H]5O[C@H](CO)[C@@H](O)[C@H](O)[C@@H]5O)cc(O)cc4[C@@H](C(=O)NCCCN(C)C)NC3=O)OC(C(=O)NCCCN(C)C)C(O)[C@@H]2O)cc1 (stereo partly specified) | 0.25 | 4 | 0.25 | 1 | 2 (≈ 1.03 µM) | 2 |  |  | MIC (Enterococcus faecium [6]): 8 µg/mL
2 | CN(Cc1ccc(C(=O)Oc2ccccc2)cc1)[C@H]1C(=O)N[C@@H]2Cc3ccc(cc3)Oc3cc4cc(c3O[C@@H]3OC(C(=O)O)C(O)[C@H](O)C3NCc3ccc(C(=O)Oc5ccccc5)cc3)Oc3ccc(cc3Cl)[C@@H](O)C3NC(=O)[C@H](NC(=O)[C@@H]4NC(=O)[C@@H](NC2=O)c2cc(cc(O)c2Cl)Oc2cc1ccc2O)c1ccc(O)c(c1)-c1c(O[C@H]2O[C@H](CO)[C@@H](O)[C@H](O)[C@@H]2O)cc(O)cc1[C@@H](C(=O)O)NC3=O (stereo partly specified) | 1 | 4 |  | 4 | 2 (≈ 1.01 µM) | 64 | 16 |  | MIC (Enterococcus faecium [9]): > 128 µg/mL; MIC (Enterococcus faecalis [10]): 1 µg/mL; MIC (Staphylococcus aureus [11]): 2 µg/mL (≈ 1.01 µM)
3 | CCCCCCCCOc1ccc(CNC2[C@H](Oc3c4cc5cc3Oc3ccc(cc3Cl)[C@@H](O)C3NC(=O)[C@H](NC(=O)[C@@H]5NC(=O)[C@H]5NC(=O)[C@@H](Cc6ccc(cc6)O4)NC(=O)[C@H](NC)c4ccc(O)c(c4)Oc4cc(O)c(Cl)c5c4)c4ccc(O)c(c4)-c4c(O[C@H]5O[C@H](CO)[C@@H](O)[C@H](O)[C@@H]5O)cc(O)cc4[C@@H](C(=O)O)NC3=O)OC(C(=O)O)C(O)[C@@H]2O)cc1 (stereo partly specified) | 0.5 |  |  | 16 | 1 (≈ 0.565 µM) | 16 |  | 2 (≈ 1.13 µM) | MIC (Enterococcus faecalis [12]): 64 µg/mL; MIC (Enterococcus faecium [13]): > 128 µg/mL; MIC (Enterococcus faecalis [15]): 0.125 µg/mL
4 | CN(C)CCCNC(=O)C1O[C@@H](Oc2c3cc4cc2Oc2ccc(cc2Cl)[C@@H](O)C2NC(=O)[C@H](NC(=O)[C@@H]4NC(=O)[C@H]4NC(=O)[C@@H](Cc5ccc(cc5)O3)NC(=O)[C@H](N(C)Cc3ccc5ccccc5c3)c3ccc(O)c(c3)Oc3cc(O)c(Cl)c4c3)c3ccc(O)c(c3)-c3c(O[C@H]4O[C@H](CO)[C@@H](O)[C@H](O)[C@@H]4O)cc(O)cc3[C@@H](C(=O)NCCCN(C)C)NC2=O)C(NCc2ccc3ccccc3c2)[C@@H](O)C1O (stereo partly specified) | 0.25 |  |  | < 0.125 | 2 (≈ 1 µM) | 1 | 2 | 1 (≈ 0.5 µM) | MIC (Enterococcus faecalis [16]): 64 µg/mL; MIC (Enterococcus faecalis [17]): < 0.25 µg/mL; MIC (Enterococcus faecium [18]): > 32 µg/mL
5 | CN(Cc1ccc(-c2ccccc2)cc1)[C@H]1C(=O)N[C@@H]2Cc3ccc(cc3)Oc3cc4cc(c3O[C@@H]3OC(C(=O)O)C(O)[C@H](O)C3NCc3ccc(-c5ccccc5)cc3)Oc3ccc(cc3Cl)[C@@H](O)C3NC(=O)[C@H](NC(=O)[C@@H]4NC(=O)[C@@H](NC2=O)c2cc(cc(O)c2Cl)Oc2cc1ccc2O)c1ccc(O)c(c1)-c1c(O[C@H]2O[C@H](CO)[C@@H](O)[C@H](O)[C@@H]2O)cc(O)cc1[C@@H](C(=O)O)NC3=O (stereo partly specified) | 0.5 |  |  | 0.5 | 0.5 (≈ 0.266 µM) | 64 | 4 | 0.5 (≈ 0.266 µM) | MIC (Enterococcus faecalis [19]): 0.5 µg/mL; MIC (Enterococcus faecium [20]): > 128 µg/mL; MIC (Enterococcus faecalis [21]): 16 µg/mL
6 | CN(C)CCCNC(=O)C1O[C@@H](Oc2c3cc4cc2Oc2ccc(cc2Cl)[C@@H](O)C2NC(=O)[C@H](NC(=O)[C@@H]4NC(=O)[C@H]4NC(=O)[C@@H](Cc5ccc(cc5)O3)NC(=O)[C@H](N(C)Cc3ccc(-c5ccccc5)cc3)c3ccc(O)c(c3)Oc3cc(O)c(Cl)c4c3)c3ccc(O)c(c3)-c3c(O[C@H]4O[C@H](CO)[C@@H](O)[C@H](O)[C@@H]4O)cc(O)cc3[C@@H](C(=O)NCCCN(C)C)NC2=O)C(NCc2ccc(-c3ccccc3)cc2)[C@@H](O)C1O (stereo partly specified) | 0.5 |  | 0.25 | 0.25 | 1 (≈ 0.488 µM) | 2 | 1 | 1 (≈ 0.488 µM) | MIC (Enterococcus faecalis [22]): 4 µg/mL; MIC (Enterococcus faecium [23]): 32 µg/mL

Source: ChEMBL document CHEMBL1142788, “Synthesis and antibacterial activity of alkyl derivatives of the glycopeptide antibiotic A40926 and their amides” (2005)
